Reference: patent publication US4323567A, “Arylmalonamido-1-oxadethiacephalosporins” (priority 1976, dated 1982)
Converted amounts (≈) assume the structure as drawn.

Legend:
Experiment in all cases: Minimal inhibitory concentration, nutrient agar plate
Escherichia coli H = format: cell-based; details: pH 7, read-out: Minimal inhibitory concentration
E. coli JC-2 = format: cell-based; details: Escherichia coli, JC2, pH 7, read-out: Minimal inhibitory concentration
E. coli 377 = format: cell-based, Escherichia coli; details: Escherichia coli, 377, pH 7, read-out: Minimal inhibitory concentration
E. coli 73 = format: cell-based, Escherichia coli; details: Escherichia coli, 73, pH 7, read-out: Minimal inhibitory concentration
[1] = test system: Serratia marsescens 13880; format: cell-based; details: Serratia, 13880, pH 7, read-out: Minimal inhibitory concentration
Klebsiella pneumoniae = format: cell-based; details: pH 7, read-out: Minimal inhibitory concentration
Klebsiella sp. 363 = format: cell-based; details: SP.363, pH 7, read-out: Minimal inhibitory concentration
Enterobacter cloacae 233 = format: cell-based; details: Enterobacter cloacae, 233, pH 7, read-out: Minimal inhibitory concentration
Proteus mirabilis PR-4 = format: cell-based; details: PR4, pH 7, read-out: Minimal inhibitory concentration
P. morganii No. 9 = format: cell-based, Proteus morganii; details: Morganella morganii, NO.9, pH 7, read-out: Minimal inhibitory concentration
P. vulgaris No. 3 = format: cell-based; details: Proteus vulgaris, NO.3, pH 7, read-out: Minimal inhibitory concentration
P. vulgaris CN-329 = format: cell-based; details: Proteus vulgaris, CN329, pH 7, read-out: Minimal inhibitory concentration
[2] = test system: Pseudomonas aeruginosa Denken; format: cell-based; details: pH 7, read-out: Minimal inhibitory concentration
Ps. aeruginosa 25619 = format: cell-based, Pseudomonas aeruginosa; details: Pseudomonas aeruginosa, 25619, pH 7, read-out: Minimal inhibitory concentration
Ps. aeruginosa 24 = format: cell-based, Pseudomonas aeruginosa; details: Pseudomonas aeruginosa, 24, pH 7, read-out: Minimal inhibitory concentration

Question: For `CO[C@@]1(NC(=O)C(C(=O)O)c2ccc(OC(=O)NC(N)=O)cc2)C(=O)N2C(C(=O)O)=C(CSc3nnnn3C)CO[C@@H]21` (stereo partly drawn) [III-27, 7β-(α-p-ureidocarbonyloxyphenyl-α-carboxyacetamido)-7α-methoxy-3-(1-methyltetrazol-5-yl)thiomethyl--oxadethia-3-cephem-4-carboxylic acid], which MIC (Escherichia coli H) is on record?
Answer: Its MIC is 0.05 µg/mL (≈ 0.0824 µM).

Question: And the MIC (E. coli JC-2)?
Answer: Its MIC is 0.2 µg/mL (≈ 0.33 µM).

Question: And the MIC (E. coli 377)?
Answer: Its MIC is 0.78 µg/mL (≈ 1.29 µM).

Question: What about the MIC (E. coli 73) of the same molecule?
Answer: The MIC was 0.78 µg/mL (≈ 1.29 µM).

Question: What about the MIC [1] of the same molecule?
Answer: Its MIC is 3.13 µg/mL (≈ 5.16 µM).

Question: What about the MIC (Klebsiella pneumoniae) of the same molecule?
Answer: The MIC was 0.39 µg/mL (≈ 0.643 µM).

Question: And the MIC (Klebsiella sp. 363)?
Answer: Its MIC is 0.2 µg/mL (≈ 0.33 µM).

Question: What about the MIC (Enterobacter cloacae 233) of the same molecule?
Answer: The MIC was 0.78 µg/mL (≈ 1.29 µM).

Question: And the MIC (Proteus mirabilis PR-4)?
Answer: Its MIC is 0.2 µg/mL (≈ 0.33 µM).

Question: And the MIC (P. morganii No. 9)?
Answer: The MIC was 0.2 µg/mL (≈ 0.33 µM).

Question: And the MIC (P. vulgaris No. 3)?
Answer: Its MIC is 0.39 µg/mL (≈ 0.643 µM).

Question: And the MIC (P. vulgaris CN-329)?
Answer: Its MIC is 0.2 µg/mL (≈ 0.33 µM).

Question: What about the MIC [2] of the same molecule?
Answer: The MIC was over 100 µg/mL.

Question: And the MIC (Ps. aeruginosa 25619)?
Answer: Its MIC is 12.5 µg/mL (≈ 20.6 µM).

Question: And the MIC (Ps. aeruginosa 24)?
Answer: The MIC was 50 µg/mL (≈ 82.4 µM).
